Where two headings read alike, the source gives them in different places. One block for each compound: values may come before it.
Experiments:
[1] = male, Wistar, rat, in vivo
Experimental: (§2) Male Wistar rats (230-280 grams) obtained from NIN (National Institute of Nutrition, Hyderabad, India) were used as an experimental animal. Three animals were housed in each cage. Animals were kept fasted over night and maintained on a 12 hours light/dark cycle. Three rats were dosed New chemical entity (NCE) orally (3 or 10 mg/kg) and intravenously (1 or 5 mg/kg) on day 0 and day 2.
(§3) At each time point blood was collected by jugular vein. Blood was stored at 2-8° C. until analysis. The concentrations of the NCE compound in blood were determined using LC-MS/MS method. Schedule time points: Pre dose 0.08, 0.25, 0.5, 1, 2, 4, 6, 8 and 24 hours after dosing (n=3). The NCE compounds were quantified in blood by partially validated LC-MS/MS method using acetonitrile precipitation technique. […] Study samples were analyzed using calibration samples in the batch and quality control samples spread across the batch.
(§4) Pharmacokinetic parameters were calculated by non-compartmental model using software WinNonlin version 5.0.1.

[2] = Rodent Brain Penetration Study; format: in vivo, Male Wister rats; settings: brain / whole blood; Wistar/Male rat, Per Oral, 3 mg/kg, vehicle water; read-out: Brain Penetration Ratio (Cbrain/Cblood)
Experimental: Three animals were housed in each cage. Animals were given water and food ad libitum throughout the experiment, and maintained on a 12 hours light/dark cycle.
New chemical entity (NCE) was dissolved in suitable vehicle and administered orally (3 or 10 mg/kg). […] Blood and brain tissue were collected and brain was homogenized to yield 20% w/v. Blood was stored at 2-8° C. and brain homogenate was frozen at −20° C. until analysis. The concentrations of NCE in blood and brain were quantified using LC-MS/MS method.
Extents of brain-blood ratio were calculated (Cbrian/Cblood)

Male Wister rats = assay: Object Recognition Task Model; format: in vivo; settings: rat; for Exploration time mean ± S.E.M, Familiar object / Exploration time mean ± S.E.M, Novel object: choice trial T2 24 h after T1
Experimental: (§1) The cognition enhancing properties of compounds of this invention were estimated by using this model.
Male Wister rats (230-280 grams) obtained from N. I. N. (National Institute of Nutrition, Hyderabad, India) was used as experimental animals. Four animals were housed in each cage. Animals were kept on 20% food deprivation before one day and given water ad libitum throughout the experiment and maintained on a 12 hours light/dark cycle. Also the rats were habituated to individual arenas for 1 hour in the absence of any objects.
One group of 12 rats received vehicle (1 mL/Kg) orally and another set of animals received compound of the formula (I) either orally or i.p., before one hour of the familiar (T1) and choice trial (T2).
The experiment was carried out in a 50×50×50 cm open field made up of acrylic. In the familiarization phase, (T1), the rats were placed individually in the open field for 3 minutes, in which two identical objects (plastic bottles, 12.5 cm height×5.5 cm diameter) covered in yellow masking tape alone (a1 and a2) were positioned in two adjacent corners, 10 cms from the walls. After 24 hours of the (T1) trial for long-term memory test, the same rats were placed in the same arena as they were placed in T1 trial. Choice phase (T2) rats were allowed to explore the open field for 3 minutes in presence of one familiar object (a3) and one novel object (b) (Amber color glass bottle, 12 cm high and 5 cm in diameter). Familiar objects presented similar textures, colors and sizes. During the T1 and T2 trial, explorations of each object (defined as sniffing, licking, chewing or having moving vibrissae whilst directing the nose towards the object at a distance of less than 1 cm) were recorded separately by stopwatch. Sitting on an object was not regarded as exploratory activity, however, it was rarely observed.
T1 is the total time spent exploring the familiar objects (a1+a2).
T2 is the total time spent exploring the familiar object and novel object (a3+b).
The object recognition test was performed as described by Ennaceur, A., Delacour, J., 1988, A new one-trial test for neurobiological studies of memory in rats—Behavioural data, Behay. Brain Res., 31, 47-59.

in vivo = settings: male, Wistar, rat, po, 3 mg/kg
Experimental: as §2, §3, §4

[3] = test system: Scopolamine Induced amnesia; assay: Morris Water Maze; format: in vivo, rats; settings: rat, active dose p.o.
Experimental: as §1
The water maze apparatus consisted of a circular pool (1.8 m diameter, 0.6 m high) constructed in black Perspex (TSE systems, Germany) filled with water (24±2° C.) and positioned underneath a wide-angled video camera to track animal. The 10 cm^2 perspex platform, lying 1 cm below the water surface, was placed in the centre of one of the four imaginary quadrants, which remained constant for all rats. The black Perspex used in the construction of the maze and platform offered no intramaze cues to guide escape behavior. By contrast, the training room offered several strong extramaze visual cues to aid the formation of the spatial map necessary for escape learning. An automated tracking system, [Videomot 2 (5.51), TSE systems, Germany] was employed. This program analyzes video images acquired via a digital camera and an image acquisition boards that determined path length, swim speed and the number of entries and duration of swim time spent in each quadrant of the water maze.

[4] = biological target: Human or Rat Histamine H3 Receptor; assay: Binding assay for human or rat Histamine H3 receptor ([3H] R-α-methylhistamine displacement); settings: radioligand [3H] R-α-methylhistamine 3.0 nM; receptor source rat brain frontal cortex or recombinant human cDNA in CHO cells (table does not say which)
Experimental: The reaction was terminated by rapid vacuum filtration onto the glass fiber filters. Radioactivity trapped onto the filters was determined and compared to the control values in order to ascertain any interactions of the test compound(s) with either cloned human or rat receptor binding site.

[5] = Rodent Pharmacokinetic Study; settings: male, Wistar, rat, whole blood
Experimental: as §2, §3, §4

SMILES: Cl.Cl.O=C(CN1CCOCC1)Nc1ccc(OC2CCN(C3CCC3)CC2)cc1 [Example 1, N-[4-(1-Cyclobutylpiperidin-4-yloxy)phenyl]-2-(morpholin-4-yl)-acetamide dihydrochloride]
AUCt ([1]; iv, 1 mg/kg): 263 ± 21 ng·h/mL
AUCt ([1]; po, 3 mg/kg): 626 ± 118 ng·h/mL
Kp [2]: 0.93 ± 0.05
Inference (Male Wister rats; 0.3 mg/kg p.o.): Active
Exploration time mean ± S.E.M, Familiar object (Male Wister rats; 0.3 mg/kg p.o.): 5.56 ± 0.81 s
Exploration time mean ± S.E.M, Novel object (Male Wister rats; 0.3 mg/kg p.o.): 15.36 ± 1.74 s
Cmax (in vivo): 349 ± 35 ng/mL
Tmax (in vivo): 0.42 ± 0.14 h
bioavailability (in vivo): 79 ± 11%
Reversal of Scopolamine Induced amnesia [3]: ≦1 mg/kg, p.o.

Ki [4]: 9.73 nM
Kp [2]: 1.24 ± 0.18
AUC(0-t) ([5]; iv, 1 mg/kg): 68 ± 2 ng·h/mL
half-life ([5]; iv, 1 mg/kg): 3.3 ± 0.42 h
AUC(0-t) ([5]; po, 3 mg/kg): 64 ± 16 ng·h/mL
Cmax ([5]; po, 3 mg/kg): 27 ± 11 ng/mL
Tmax ([5]; po, 3 mg/kg): 0.5 h
bioavailability ([5]; po, 3 mg/kg): 32 ± 8%
half-life ([5]; po, 3 mg/kg): 3.59 ± 0.43 h
SMILES: CC(=O)N(CCN1CCOCC1)c1ccc(OC2CCN(C3CCC3)CC2)cc1F [Example 37, N-[4-(1-Cyclobutylpiperidin-4-yloxy)-2-fluorophenyl]-N-[2-(morpholin-4-yl)-ethyl] acetamide]
Inference (Male Wister rats; 3 mg/kg p.o.): Active
Exploration time mean ± S.E.M, Familiar object (Male Wister rats; 3 mg/kg p.o.): 5.53 ± 1.67 s
Exploration time mean ± S.E.M, Novel object (Male Wister rats; 3 mg/kg p.o.): 14.18 ± 2.04 s

Source: patent publication US9079888B2, “Compounds as histamine H3 receptor ligands” (Suven Life Sciences Limited, priority 2011, dated 2015)
